This passage reports Km results from article PMC7448270, “Channeling C1 Metabolism toward S-Adenosylmethionine-Dependent Conversion of Estrogens to Androgens in Estrogen-Degrading Bacteria” (mBio, 2020).

The test system of the test is T1, estradiol/estrogen methyltransferase (EMT; EmtABCD).
T1 construct: gene emtA; native, not purified; cell-free extract of estradiol-grown cells; assignment to emtABCD by proteogenomics; with Estrogen methyltransferase component EmtC; Estrogen methyltransferase component EmtD (oxidoreductase-like, putative reductive cofactor regeneration)
Nature of the test: UPLC assay of methylation by cell-free extract, Michaelis-Menten. It counts as biochemical, Denitratisoma oestradiolicum. Particulars: SAM methyl donor, Ti(III)-citrate, MgCl2, HEPES/KOH pH 8.0, 30°C, anaerobic; crude soluble extract, enzyme not purified.

For orientation: Km means the substrate concentration at which the rate is half of its maximum.

`C[C@]12CC[C@@H]3c4ccc(O)cc4CC[C@H]3[C@@H]1CC[C@@H]2O` [17β-estradiol]: the Km turned out to be 35 ± 4 µM.

Consider `C[C@]12CC[C@@H]3c4ccc(O)cc4CC[C@H]3[C@@H]1CCC2=O` [estrone], for which the Km was determined as 14 ± 3 µM.
